BindingDB's records for doi:10.1021/acs.jmedchem.3c00926 (Yale University, 2023)

Each compound was assayed against T1, Signal transducer and activator of transcription 3 (Homo sapiens, UniProt P40763) (assay: Inhibition of IL-23 induced STAT3 phosphorylation in human KIT225 cells by AlphaLISA assay).
T1 sequence (P40763 whole entry): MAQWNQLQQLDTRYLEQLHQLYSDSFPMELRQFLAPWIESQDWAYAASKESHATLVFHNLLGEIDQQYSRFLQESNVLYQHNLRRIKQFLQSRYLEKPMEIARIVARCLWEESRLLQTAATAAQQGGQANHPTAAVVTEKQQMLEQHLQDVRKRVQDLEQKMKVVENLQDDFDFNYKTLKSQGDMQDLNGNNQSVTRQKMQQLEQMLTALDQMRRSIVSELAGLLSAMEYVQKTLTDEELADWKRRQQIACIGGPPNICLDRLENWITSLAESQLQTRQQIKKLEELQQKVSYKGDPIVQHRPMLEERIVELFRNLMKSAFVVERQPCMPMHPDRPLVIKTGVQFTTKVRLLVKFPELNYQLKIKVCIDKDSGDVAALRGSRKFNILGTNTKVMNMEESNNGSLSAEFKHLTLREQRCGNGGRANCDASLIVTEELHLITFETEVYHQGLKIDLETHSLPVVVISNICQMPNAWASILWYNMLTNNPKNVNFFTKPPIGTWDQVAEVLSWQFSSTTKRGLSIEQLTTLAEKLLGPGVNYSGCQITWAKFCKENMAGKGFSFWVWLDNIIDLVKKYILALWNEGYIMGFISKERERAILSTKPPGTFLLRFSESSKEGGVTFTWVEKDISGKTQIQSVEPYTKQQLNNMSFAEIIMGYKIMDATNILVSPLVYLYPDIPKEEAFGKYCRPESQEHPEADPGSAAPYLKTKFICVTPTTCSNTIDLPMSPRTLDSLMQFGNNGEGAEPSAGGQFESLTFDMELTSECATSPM

Structure (SMILES)	IC50 [nM]
[2H]C([2H])([2H])NC(=O)c1nnc(NC(=O)C2CC2)cc1Nc1cccc(-c2ncn(C)n2)c1OC [Bms-986165]	89
NC(=O)c1ccccc1Nc1cc(Nc2ccc(F)cn2)ncc1C(N)=O	180
N#Cc1cc(Nc2cc(NC3CC3)c3ncc(C(N)=O)n3n2)cc(C(F)(F)F)c1	8200
CNC(=O)c1cnc(Nc2ccc(F)cn2)cc1Nc1ccccc1S(C)(=O)=O	230

Stronger by IC50, values ahead:

IC50 [nM]	Structure (SMILES)
15	[2H]C([2H])([2H])NC(=O)c1nnc(NC(=O)C2CC2)cc1Nc1ccccc1S(C)(=O)=O
13	CNC(=O)c1cnc(Nc2ccc(C#N)cn2)cc1Nc1cccc(-c2ncn(C)n2)c1OC

Each compound was assayed against T1, Signal transducer and activator of transcription 3 (assay: Inhibition of IL-23 induced STAT3 phosphorylation in human Jurkat cells incubated for 30 mins by microplate reader analysis).

IC50 [nM]	Structure (SMILES)
89	NC(=O)c1ccccc1Nc1cc(Nc2ccc(F)cn2)ncc1C(N)=O
